Laboratory results taken from patent US11821905B2, “Biomarkers of vascular disease” (Arterez, Inc., priority 2015, dated 2023).

Key:
Assay type in all cases: in vivo, mouse
C57/BI6 mice [1] = experiment: Pathology of arterial wall, murine model of atherosclerosis, Example 2; details: FIGS. 14A, 14B; positive control group (High fat diet, PCB)
From the text: (§1) A novel model of atherosclerosis in mice was developed, using a high fat diet and administration of a polychlorinated biphenyl (3,3′,4,4′-Tetrachlorobiphenyl; PCB-77) that promotes both obesity and atherosclerosis and the additional oral administration of a bacteria responsible for tooth decay, Porphyromonas gingivalis 381 (ATCC 33277). The objective of this study was to examine the association of biomarkers with the murine model of atherosclerosis in mice treated with a strategy to protect and repair endothelial glycocalyx. Eighty-four (84) ten week old male C57/BI6 mice were obtained from Jackson Laboratories. Thirty-two mice were raised from 6 weeks on a regular diet and served as controls, and the remaining mice were raised on a 60% fat diet (D12451, DIO series diet, Opensource Diets). 3,3′,4,4′-Tetrachlorobiphenyl (PCB-77) was obtained from Neosyn Laboratories. The dry chemical was suspended in 15.22 ml of corn oil to deliver 200 μmol/kg in 0.2 ml by gavage per mouse.
The mice were sacrificed on days 4, 11, or 18 according to the experimental plan (three each from groups). The animals were anesthetized by intraperitoneal injection of 90 mg/kg Ketamine and 8 mg/kg Xylazine, and Isoflurane gas anesthesia. Blood was collected by retro-orbital bleeding or from the heart and mixed with 50 mg/ml heparin to prevent clotting. […]

Syndecan-1 (SDC1) = Syndecan-1 (SDC1) ELISA on plasma, murine model of atherosclerosis, Example 2; details: FIG. 13; mice treated PCB-77 and Porphyromonas gingivalis; high degree of variability
From the text: as §1
(§2) Four test kits were used to analyze the collected plasma samples: Heparan Sulfate ELISA and Hyaluronan Synthase 1 (HAS-1) ELISA (Antibodies-Online), Total Plasminogen Activation Inhibitor-1 (PAI-1) ELISA (Molecular-Innovive) and Syndecan-1 (SDC1) ELISA (USCN, Houston, Tex.). […]

[2] = tested on: Hyaluronan Synthase 1 (HAS-1); experiment: Hyaluronan Synthase 1 (HAS-1) ELISA on plasma, murine model of atherosclerosis, Example 2; details: FIG. 10; high fat diet, PCB on Day 1 and 3, sacrificed at Day 4
From the text: as §1, §2

Heparan Sulfate (HS) = experiment: Heparan Sulfate ELISA on plasma, murine model of atherosclerosis, Example 2; details: FIG. 11; mice treated PCB-77 and Porphyromonas gingivalis
From the text: as §1, §2

C57/BI6 mice [3] = experiment: Histology disease score (Oil Red O, plaque, fibrous tissue, inflammation), Example 1; details: FIG. 9, gavage 150 μmol/kg, sacrifice days 10, 15, 20
Method: For the pilot study, 48 ten week old male C57/BI6 mice were obtained from Jackson Laboratories. Three mice were raised from 6 weeks on a regular diet and served as controls, and the remaining 45 were raised on a 60% fat diet (D12451, DIO series diet, Opensource Diets). For the bacterial dosage test, 16 ten week old male C57/BI6 mice were divided into 4 treatment groups and maintained on a normal diet.
3,3′,4,4′-Tetrachlorobiphenyl (PCB-77) was obtained from Neosyn Laboratories. 100 mg of the dry chemical was suspended in 15.22 ml of corn oil to deliver 150 μmol/kg in 0.2 ml per mouse. Porphyromonas gingivalis 381 (ATCC 33277) was obtained from ATCC. The bacteria were stored frozen prior to use. […] A microplate reader was used to measure the optical density at 600 nm to determine the concentration of bacteria. […]
The hearts were prepared as frozen sections. […] Multiple 10 μm sections at the level of the aortic sinus were analyzed for the presence of oil Red O lipid staining, plaque size, amount of fibrous tissue, and inflammation. The percentage of the lumen occupied by the first three features was calculated using Image Pro Plus. […] The level of inflammation in each section was scored on the following scale: 0=no inflammatory cells observed, 1=few macrophages with no giant cells, 2=foam cells present, 3=foam cells with cholesterol, 4=foam cells, giant cells, and cholesterol present. […]

SMILES: Clc1ccc(-c2ccc(Cl)c(Cl)c2)cc1Cl [PCB-77, 3,3′,4,4′-Tetrachlorobiphenyl]
- pathology of arterial wall (C57/BI6 mice [1]): presence of a pathology consistent with plaque
- SDC-1 level (Syndecan-1 (SDC1)): elevation in SDC-1
- HAS-1 levels [2]: highest HAS-1 levels
- Heparan Sulfate (HS) level (Heparan Sulfate (HS)): elevation in HS
- average disease scores for each group and time point (inflammation and plaque) (C57/BI6 mice [3]): most significant risk factor to producing inflammation and plaque
